Test results reported in PubChem BioAssay AID2060599 (Molecular Pharmacology Branch, DTP, NCI, 2025).
Values joined by “and” are separate entries in the source; they are usually repeats but may differ in a detail not shown here. Identical values can stand only once.

Test system: 817829-284-R-J1-PDC complex spheroids, viability
Assay: Anticancer human tumor 817829-284-R-J1-PDC patient-derived colon adenocarcinoma cell line growth inhibition [CLK]
Settings: for viability, T/C: stronger effect = lower value
Text: A high-throughput screen of multi-cell type tumor spheroids was designed to identify active combinations of […] and targeted small molecules. Complex spheroids include a stromal component modeled by human endothelial cells (HUVEC) and fibroblasts modeled by human mesenchymal stem cells (MSCs). The concentration ranges selected for each drug and investigational agent were based upon clinically achievable concentrations if the clinical Cmax of the agent was known.
Compounds. The drugs and investigational agents: cirtuvivint (SM08502; NSC835563), CC-671 (NSC850746), vemurafenib (NSC761431), tapotoclax (NSC804041), sotorasib (NSC818433), adagrasib (NSC831453), MRTX-1133 (NSC836407), BAY2416964 (NSC825713), copanlisib (NSC816437), inavolisib (NSC800729), abemaciclib (NSC768073), osimertinib (NSC779217), entinostat (NSC756642), eltanexor (KPT-8602, NSC794443), venetoclax (NSC766270), ceralasertib (NSC777638), bortezomib (NSC756655), olaparib (NSC753686), talazoparib (NSC767125), alisertib (NSC759677), peposertib (NSC802822), gemcitabine (NSC613327), 5-fluorouracil (NSC19893), SN-38 (NSC673596), oxaliplatin (NSC266046), paclitaxel (NSC125973), and doxorubicin (NSC123127), were obtained from the National Cancer Institute (NCI) Developmental Therapeutics Program Chemical Repository. The FDA-approved anticancer drug set is available from the Developmental Therapeutics Program at https://dtp.cancer.gov/organization/dscb/obtaining/available plates.htm. […] The stock solutions were prepared in dimethyl sulfoxide (DMSO, Sigma-Aldrich, St. Louis, MO, cat. D2650), except for the platinum complexes which were prepared in saline (Quality Biological, Gaithersburg, MD, cat. 114-055-101), at 800-fold the tested concentration and stored at -70 degrees C prior to their use. All drugs and investigational agents were tested over a range starting from a high concentration at or near the clinical Cmax and decreasing in half-log increments. If the clinical Cmax for an agent had not been determined, the highest concentration tested was 10 microM.
Cell Culture. All cells were maintained in an incubator at 37 degrees C and 5% CO2 with 95% humidity. The PDC lines were cultured according to standard operating procedures established by the NCI PDMR. Briefly, all PDCs were thawed and cultured in Matrigel-coated flasks prepared with a working solution of 1X Ham's F-12 nutrient mix, without supplementation (Invitrogen, Waltham, MA, cat. 11765054), 100 U/mL penicillin-streptomycin (Invitrogen, cat. 15140122), and 2.5% Matrigel (Corning Inc., Corning, NY, cat. 354248) for the first three passages. The 947758-054-R-J2-PDC line was cultured in 6B/Colon 1A media, which includes advanced DMEM/F-12 (Thermo Fisher Scientific, cat. 12634028), 10 mM HEPES (Thermo Fisher Scientific, cat. 15630080), 1X GlutaMAX supplement (Thermo Fisher Scientific, cat. 35050061), 0.1 mg/mL primocin (InvivoGen, cat. ant-pm-2), 10% defined fetal bovine serum, heat inactivated (HyClone Laboratories Inc., cat. SH30070.03HI), 1.25 mM N-Acetyl-L-cysteine (Sigma-Aldrich, cat. A9165), 10 mM nicotinamide (Sigma-Aldrich, cat. N0636), 1X B-27 supplement (Thermo Fisher Scientific, cat. 17504044), 1X N-2 supplement (Thermo Fisher Scientific, cat. 17502048), and 10 microM Y-27632 dihydrochloride (Tocris Bioscience, cat. 1254). The 876862-298-R-J1-PDC was cultured in 6E media, which includes all 6B/Colon 1A media components plus 50% L-WRN conditioned media (ATCC, cat. CRL-3276), 50 ng/mL recombinant human EGF recombinant protein (hEGF; Thermo Fisher Scientific, cat. PHG0311), 10 ng/mL recombinant human fibroblast growth factor 10 (hGFG-10; PeproTech, cat. 100-26), 1 ng/mL recombinant human fibroblast growth factor 2 (hFGF-2; PeproTech, cat. 100-18B), and 1 µM prostaglandin E2 (PGE2; Tocris, cat. 2296). The 227483-062-R1-J1-PDC line was cultured in Panc media, containing all 6E components except hFGF-2, with the addition of 500 nM SB-431542 (Selleckchem, cat. S1067) and 10 nM gastrin (Tocris, cat. 3006). […]

[1] = curve of first compound, second compound 0.0316 µM
[2] = curve of first compound, second compound 0.1 µM
[3] = curve of first compound, second compound 0.316 µM
[4] = curve of first compound, second compound 1 µM
[5] = curve of first compound, second compound 3.16 µM
[6] = curve of first compound, second compound 10 µM
[7] = second compound 0.0316 µM, first compound 0.0316 µM
[8] = second compound 0.0316 µM, first compound 0.1 µM
[9] = second compound 0.0316 µM, first compound 0.316 µM
[10] = second compound 0.0316 µM, first compound 1 µM
[11] = second compound 0.0316 µM, first compound 3.16 µM
[12] = second compound 0.0316 µM, first compound 10 µM
[13] = second compound 0.1 µM, first compound 0.0316 µM
[14] = second compound 0.1 µM, first compound 0.1 µM
[15] = second compound 0.1 µM, first compound 0.316 µM
[16] = second compound 0.1 µM, first compound 1 µM
[17] = second compound 0.1 µM, first compound 3.16 µM
[18] = second compound 0.1 µM, first compound 10 µM
[19] = second compound 0.316 µM, first compound 0.0316 µM
[20] = second compound 0.316 µM, first compound 0.1 µM
[21] = second compound 0.316 µM, first compound 0.316 µM
[22] = second compound 0.316 µM, first compound 1 µM
[23] = second compound 0.316 µM, first compound 3.16 µM
[24] = second compound 0.316 µM, first compound 10 µM
[25] = second compound 1 µM, first compound 0.0316 µM
[26] = second compound 1 µM, first compound 0.1 µM
[27] = second compound 1 µM, first compound 0.316 µM
[28] = second compound 1 µM, first compound 1 µM
[29] = second compound 1 µM, first compound 3.16 µM
[30] = second compound 1 µM, first compound 10 µM
[31] = second compound 3.16 µM, first compound 0.0316 µM
[32] = second compound 3.16 µM, first compound 0.1 µM
[33] = second compound 3.16 µM, first compound 0.316 µM
[34] = second compound 3.16 µM, first compound 1 µM
[35] = second compound 3.16 µM, first compound 3.16 µM
[36] = second compound 3.16 µM, first compound 10 µM
[37] = second compound 10 µM, first compound 0.0316 µM
[38] = second compound 10 µM, first compound 0.1 µM
[39] = second compound 10 µM, first compound 0.316 µM
[40] = second compound 10 µM, first compound 1 µM
[41] = second compound 10 µM, first compound 3.16 µM
[42] = second compound 10 µM, first compound 10 µM
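Also: spheroids exposed to the agents for seven days before readout.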

CC(=O)O[C@H]1C(=O)[C@@]2(C)[C@H]([C@H](OC(=O)c3ccccc3)[C@]3(O)C[C@H](OC(=O)[C@H](O)[C@@H](NC(=O)c4ccccc4)c4ccccc4)C(C)=C1C3(C)C)[C@]1(OC(C)=O)CO[C@@H]1C[C@@H]2O
viability, T/C (compound 0.0316 µM): 5.82% and 6.97%
viability, T/C (compound 0.1 µM): 4.87% and 7.28%
viability, T/C (compound 0.316 µM): 5.22% and 6.91%
viability, T/C (compound 1 µM): 5.4% and 7.87%
viability, T/C (compound 3.16 µM): 6.88% and 8.37%
viability, T/C (compound 10 µM): 6.36% and 7.7%
IC50 (curve of compound): < 31.6 nM

COc1ccc([C@@H](O)c2cc(-c3ncnc4cc(N5CCOCC5)ccc34)c(F)cc2Cl)nn1
viability, T/C (compound 0.0316 µM): 117%
viability, T/C (compound 0.1 µM): 105%
viability, T/C (compound 0.316 µM): 86.4%
viability, T/C (compound 1 µM): 48.6%
viability, T/C (compound 3.16 µM): 31.6%
viability, T/C (compound 10 µM): 21.2%
IC50 (curve of compound): 1040 nM

COc1cccc2c1C(=O)c1c(O)c3c(c(O)c1C2=O)CC(O)(C(=O)CO)CC3OC1CC(N)C(O)C(C)O1 (configuration not stated)
viability, T/C (compound 0.0316 µM): 20.5%
viability, T/C (compound 0.1 µM): 16.4%
viability, T/C (compound 0.316 µM): 4.21%
viability, T/C (compound 1 µM): 0.22%
viability, T/C (compound 3.16 µM): 0.3%
viability, T/C (compound 10 µM): 0.85%
IC50 (curve of compound): < 31.6 nM

C=CC(=O)N1CCN(c2nc(=O)n(-c3c(C)ccnc3C(C)C)c3nc(-c4c(O)cccc4F)c(F)cc23)C(C)C1 (configuration not stated) + CN1CCN(c2cc(C(=O)Nc3cc4cc(-c5cnn(C)c5)ccc4cn3)ccn2)CC1
IC50 [1]: 3090 nM
IC50 [2]: < 31.6 nM
IC50 [3]: < 31.6 nM
IC50 [4]: < 31.6 nM
IC50 [5]: < 31.6 nM
IC50 [6]: < 31.6 nM
viability, T/C [7]: 75.7%
viability, T/C [8]: 70.6%
viability, T/C [9]: 60.9%
viability, T/C [10]: 76.9%
viability, T/C [11]: 49.6%
viability, T/C [12]: 32.2%
viability, T/C [13]: 24.9%
viability, T/C [14]: 25.4%
viability, T/C [15]: 22.4%
viability, T/C [16]: 22.8%
viability, T/C [17]: 16.1%
viability, T/C [18]: 10.7%
viability, T/C [19]: 2.69%
viability, T/C [20]: 2.73%
viability, T/C [21]: 3%
viability, T/C [22]: 3.05%
viability, T/C [23]: 3.47%
viability, T/C [24]: 1.56%
viability, T/C [25]: 0.15%
viability, T/C [26]: 0.15%
viability, T/C [27]: 0.22%
viability, T/C [28]: 0.15%
viability, T/C [29]: 0.1%
viability, T/C [30]: 0.16%
viability, T/C [31]: 0.16%
viability, T/C [32]: 0.28%
viability, T/C [33]: 0.2%
viability, T/C [34]: 0.16%
viability, T/C [35]: 0.51%
viability, T/C [36]: 0.15%
viability, T/C [37]: 0.08%
viability, T/C [38]: 0.11%
viability, T/C [39]: 0.12%
viability, T/C [40]: 0.13%
viability, T/C [41]: 0.12%
viability, T/C [42]: 0.13%

CCCS(=O)(=O)Nc1ccc(F)c(C(=O)c2c[nH]c3ncc(-c4ccc(Cl)cc4)cc23)c1F + CN1CCN(c2cc(C(=O)Nc3cc4cc(-c5cnn(C)c5)ccc4cn3)ccn2)CC1
IC50 [1]: < 31.6 nM
IC50 [2]: < 31.6 nM
IC50 [3]: < 31.6 nM
IC50 [4]: < 31.6 nM
IC50 [5]: < 31.6 nM
IC50 [6]: < 31.6 nM
viability, T/C [7]: 53.5%
viability, T/C [8]: 41.8%
viability, T/C [9]: 39.8%
viability, T/C [10]: 43.8%
viability, T/C [11]: 35.6%
viability, T/C [12]: 18.4%
viability, T/C [13]: 19%
viability, T/C [14]: 17.5%
viability, T/C [15]: 14.2%
viability, T/C [16]: 11.8%
viability, T/C [17]: 12.2%
viability, T/C [18]: 3.08%
viability, T/C [19]: 1.39%
viability, T/C [20]: 1.67%
viability, T/C [21]: 1.88%
viability, T/C [22]: 1.17%
viability, T/C [23]: 1.2%
viability, T/C [24]: 0.66%
viability, T/C [25]: 0.09%
viability, T/C [26]: 0.11%
viability, T/C [27]: 0.15%
viability, T/C [28]: 0.09%
viability, T/C [29]: 0.09%
viability, T/C [30]: 0.08%
viability, T/C [31]: 0.09%
viability, T/C [32]: 0.18%
viability, T/C [33]: 0.1%
viability, T/C [34]: 0.2%
viability, T/C [35]: 0.13%
viability, T/C [36]: 0.09%
viability, T/C [37]: 0.06%
viability, T/C [38]: 0.08%
viability, T/C [39]: 0.1%
viability, T/C [40]: 0.18%
viability, T/C [41]: 0.21%
viability, T/C [42]: 0.17%

COC1C=CCC(C)C(C)S(=O)(=O)NC(=O)c2ccc3c(c2)N(CC2CCC21)CC1(CCCc2cc(Cl)ccc21)CO3 (configuration not stated) + CN1CCN(c2cc(C(=O)Nc3cc4cc(-c5cnn(C)c5)ccc4cn3)ccn2)CC1
IC50 [1]: 1410 nM
IC50 [2]: < 31.6 nM
IC50 [3]: < 31.6 nM
IC50 [4]: < 31.6 nM
IC50 [5]: < 31.6 nM
IC50 [6]: < 31.6 nM
viability, T/C [7]: 52.5%
viability, T/C [8]: 70%
viability, T/C [9]: 51.2%
viability, T/C [10]: 63.3%
viability, T/C [11]: 28.2%
viability, T/C [12]: 7.26%
viability, T/C [13]: 21.4%
viability, T/C [14]: 18.1%
viability, T/C [15]: 16.3%
viability, T/C [16]: 12.3%
viability, T/C [17]: 5.31%
viability, T/C [18]: 2.6%
viability, T/C [19]: 1.91%
viability, T/C [20]: 1.47%
viability, T/C [21]: 1.45%
viability, T/C [22]: 1.31%
viability, T/C [23]: 1.5%
viability, T/C [24]: 0.95%
viability, T/C [25]: 0.08%
viability, T/C [26]: 0.21%
viability, T/C [27]: 0.16%
viability, T/C [28]: 0.07%
viability, T/C [29]: 0.35%
viability, T/C [30]: 0.05%
viability, T/C [31]: 0.15%
viability, T/C [32]: 0.16%
viability, T/C [33]: 0.23%
viability, T/C [34]: 0.46%
viability, T/C [35]: 0.28%
viability, T/C [36]: 0.08%
viability, T/C [37]: 0.48%
viability, T/C [38]: 0.13%
viability, T/C [39]: 0.19%
viability, T/C [40]: 0.31%
viability, T/C [41]: 0.37%
viability, T/C [42]: 0.17%
